Entries after “also recorded” stand apart in the source; their conditions may differ.
What was measured:
AfCYP51B-6×His = biological target: T1, AfCYP51B-6×His (Aspergillus fumigatus, UniProt E9QY26); assay: Type I binding of substrates (difference spectra); conditions: for ΔAmax (type I binding): AfCYP51B-6×His 5 μM, Michaelis–Menten equation
T1 sequence (E9QY26 1-524): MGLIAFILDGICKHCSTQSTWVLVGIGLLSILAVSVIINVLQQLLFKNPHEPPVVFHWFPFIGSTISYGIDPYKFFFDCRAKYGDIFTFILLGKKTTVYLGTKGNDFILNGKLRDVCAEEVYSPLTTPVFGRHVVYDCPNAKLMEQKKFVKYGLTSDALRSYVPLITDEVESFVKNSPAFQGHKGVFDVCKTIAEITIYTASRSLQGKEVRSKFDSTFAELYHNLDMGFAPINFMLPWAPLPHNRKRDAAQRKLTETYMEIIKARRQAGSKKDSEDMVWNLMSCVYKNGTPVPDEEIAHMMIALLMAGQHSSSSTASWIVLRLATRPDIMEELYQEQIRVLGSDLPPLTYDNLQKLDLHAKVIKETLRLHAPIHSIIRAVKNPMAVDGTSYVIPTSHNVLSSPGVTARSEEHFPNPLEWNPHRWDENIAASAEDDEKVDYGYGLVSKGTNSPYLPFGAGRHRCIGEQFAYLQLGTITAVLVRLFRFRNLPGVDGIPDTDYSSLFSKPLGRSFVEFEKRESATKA
Experimental: (§1) The concentration of AfCYP51A and AfCYP51B, purified using Ni-NTA affinity chromatography and used for the spectrophotometric type I and type II binding assays, was calculated using an extinction co-efficient of λ417nm = 117 mM^−1 cm^−1 applied to the absolute absorption spectrum of the preparations. In addition, the amount of “active” cytochrome P450 enzyme was determined using the carbon monoxide (CO) binding spectra of these preparations.
(§2) Type I binding of substrates lanosterol and eburicol in the active site of the Ni-NTA affinity-purified AfCYP51A and AfCYP51B enzymes was assessed using the method of Warrilow et al.. Titrations of 5 μM AfCYP51-6×His protein with lanosterol or eburicol (1 to 250 μM) were measured using a Cary 300 UV–Visible Spectrophotometer (Agilent Technologies, Santa Clara, CA, USA). Substrate saturation curves were constructed by plotting the maximal ∆Apeak−trough obtained between 350 and 500 nm, allowing for a change in the reaction volume during the titration. The substrate binding constant (KS) was calculated by nonlinear regression (Levenberg–Marquardt algorithm) applied to the Michaelis–Menten equation or the Hill equation. GraphPad Prism 9.2.0 software was used to identify the best fit for the data.

AfCYP51A-6×His = AfCYP51A-6×His (Aspergillus fumigatus, UniProt Q4WNT5); assay: Type I binding of substrates (difference spectra); parameters: Full-length codon-optimised AfCYP51A-6×His and AfCYP51B-6×His were constitutively co-expressed; made in house; conditions: AfCYP51A-6×His 5 µM, concentrations up to 300 μM
Chain of AfCYP51A-6×His (Q4WNT5 whole entry): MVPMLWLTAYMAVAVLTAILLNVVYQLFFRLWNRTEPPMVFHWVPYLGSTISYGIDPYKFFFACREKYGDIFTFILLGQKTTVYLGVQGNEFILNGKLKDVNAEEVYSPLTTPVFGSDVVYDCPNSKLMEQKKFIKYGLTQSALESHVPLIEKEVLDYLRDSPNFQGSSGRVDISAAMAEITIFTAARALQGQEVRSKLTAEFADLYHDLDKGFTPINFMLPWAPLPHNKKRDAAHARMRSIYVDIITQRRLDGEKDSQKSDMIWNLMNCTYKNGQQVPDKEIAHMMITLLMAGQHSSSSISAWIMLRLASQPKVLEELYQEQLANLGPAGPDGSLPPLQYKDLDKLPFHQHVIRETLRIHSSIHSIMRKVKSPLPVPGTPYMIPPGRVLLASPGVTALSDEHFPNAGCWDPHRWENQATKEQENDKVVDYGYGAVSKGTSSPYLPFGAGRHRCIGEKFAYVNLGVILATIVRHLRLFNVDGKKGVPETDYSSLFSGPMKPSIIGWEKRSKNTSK
Experimental: as §1
as §2, with “Titrations of 5 μM AfCYP51-6×His protein with lanosterol or eburicol (1 to 250 μM) were measured using a Cary 300 UV–Visible Spectrophotometer (Agilent Technologies, Santa Clara, CA, USA).” left out

## C=C(CC[C@@H](C)[C@H]1CC[C@@]2(C)C3=C(CC[C@]12C)[C@@]1(C)CC[C@H](O)C(C)(C)C1CC3)C(C)C (stereo partly shown) [Eburicol, eburicol]
AfCYP51B-6×His
  Kd: 71 µM
  ΔAmax (type I binding): 0.161
AfCYP51B-6×His; AfCYP51B-6×His
  type I binding spectrum peak: 387 nm
  type I binding spectrum trough: 422 nm
AfCYP51B-6×His; listed as eburicol
  ΔAmax (type I binding): 0.16
AfCYP51B-6×His; ratio of Ks values
  affinity of AfCYP51B for eburicol versus lanosterol: at least 6 fold
AfCYP51A-6×His
  type I binding response: did not give the expected type I binding response; also recorded: did not give a type I binding response
